Results published in BindingDB's records for PubMed 31761384 (China Pharmaceutical University, 2020).
Bridge positions count the residues as written; N and C are the ends. Peptide text beside a SMILES is read from it.

Test: Inhibition of human PD-1 expressed in rat PBMCs/human PD-L1 expressed in MDA-MB-231 cells protein-protein interaction assessed as increase in PBMCs proliferation

CC[C@H](C)[C@@H]1NC(=O)[C@H](CC(C)C)NC(=O)[C@H](Cc2ccccc2)NC(=O)CSC[C@@H](C(=O)NCC(N)=O)NC(=O)[C@H](CCCNC(=N)N)NC(=O)[C@H](Cc2ccccc2)NC(=O)[C@H](C(C)C)NC(=O)[C@H](CCCNC(=N)N)NC(=O)[C@H](CC(=O)O)NC(=O)[C@H](CCCNC(=N)N)NC(=O)[C@H]([C@@H](C)CC)NC(=O)[C@H](C(C)C)NC1=O ({CH2CO}-FLIVIRDRVFRCG-NH2; thioether N-12)
EC50: 0.41 nM
